Data reported in patent US11639496B2, “Reducing fratricide of immune cells expressing NKG2D-based receptors” (CELYAD S.A, priority 2017, dated 2023).

How the values were obtained:
Assay type in all cases: cell-based, human
K562 or PANC-1 cells = experiment: Cytokine release assay: IFN-γ ELISA after co-culture of NKR-2 T cells with cancer cells; conditions: cells cultured with PI3K inhibitor (5 μM CAL101), compared with blocking NKG2D antibody
Protocol: Fresh NKR-2 T cells and/or control tCD19 cells were incubated with K562 or PANC-1 cells at a ratio of 1:1 in X-Vivo 15 containing 5% HS. Following an incubation of 24 h supernatants were harvested and IFN-γ measured by ELISA (R&D Systems, SIF50) according to manufacturer's protocol. As a positive control cells were activated with PMA (Sigma-Aldrich, P8139-5MG) and ionomycin (Sigma-Aldrich, 10634-1MG). To assess the background levels of activation the cells received no stimulus.
Antibody Inhibition Assay NKR-2 T cells were incubated with 1 μg/mL of NKG2D blocking antibody, isotype control or no antibody for 24 hours and subsequently NKR-2 T cells mediated secretion of IFN-γ measured. Similarly, NKR-2 cells were co-cultured with cancer cells in the presence of antibody and cytokine secretion measured.

NKG2D (CD314) = experiment: Flow cytometry of NKG2D (CD314) cell surface expression on NKR-2 T cells
Protocol: (§1) (A) MFI of NKG2D expression on NKR-2 T cells treated or not with increasing concentrations of LY294002. Data shown are mean±SD of N=3 independent donors. (B) Transduced T cells were cultured in complete X-vivo (100 IU/ml IL-2) supplemented or not with increasing concentrations of LY294002 for expansion. T cells were analyzed 96 h after seeding for fold expansion relative to the initial cell seeding density. Data shown are mean±SD of N=3 independent donors. (C) Viability of cells after cryopreservation. NKR-2 T cells were produced in presence of increasing concentration of LY294002. After production, cells were harvested, washed, and formulate for cryopreservation. After cryopreservation, cells were thawed using a water bath and resuspended in Plasmalyte/Human Serum Albumin (HSA) 5%. Cells viability was directly assessed after thawing (T0 h) or after 6 hours at 4° C. in Plasmalyte/HSA5% (T6 h) (N=[…]) (D) NKR-2 T cells were produced in presence of increasing concentration of LY294002. […] After 48 hours, cell viability was assessed using trypan blue staining (N=3) and normalized for the number of cells at cryopreservation (E) tCD19 T cells were co-cultured with NKR-2 T cells generated from the same donor in presence of increasing concentrations of blocking Ab (from 0 (−) to 10 μg/ml). […] Following a 24 h incubation, supernatants were harvested and IFN-γ measured (N=3). […]

NKR-2 T cells = experiment: Fold expansion / cell yield of NKR-2 (NKG2D CAR) T cells during manufacturing culture; conditions: compared to cells without inhibition of NKG2D signaling
Protocol: as §1, with “After cryopreservation, cells were thawed using a water bath and resuspended in Plasmalyte/Human Serum Albumin (HSA) 5%.” left out
FIG. 9: NKR-2 T cells Ab blockade process adaptation restores CD4/CD8 ratio. […] PANC-1 viability was assessed every 2 hours by the IncuCyte S3 device. […]

For `CC[C@H](Nc1ncnc2[nH]cnc12)c1nc2cccc(F)c2c(=O)n1-c1ccccc1` [Cal-101, idelalisib], the “IFN gamma secretion post co-culture with K562 cells” value (K562 or PANC-1 cells) was “produce more interferon”.
`O=c1cc(N2CCOCC2)oc2c(-c3ccccc3)cccc12` [LY294002] was tested, and the “concentration at which NKG2D expression reaches the level of control tCD19 T cells” value (NKG2D (CD314)) was 10 µM.
For `Nc1cccc(-c2cc3c(Oc4cccc(O)c4)ncnc3[nH]2)c1` [TWS119], the “expansion with downstream inhibitors of the PI3K pathway” value (NKR-2 T cells) was “expansion is increased”.
